# Laboratory results reported in patent publication US8226944B2, “Composition for treating virus infection disease comprising Jab1” (priority 2004, dated 2012).
# Square brackets hold non-standard residues; d marks the D form. Peptide text beside a SMILES is read from it. Nle = CCCC[C@H](N)C(=O)O
# What was measured:
# [1] = test system: SH-SY5Y cells expressing WNV-Cp; assay: Annexin V-PE staining / FACS apoptosis rate in cells transfected with WNV-Cp gene; format: cell-based, human; conditions: 200 nM inhibitor added after 6 hrs, measured after 24 hrs, untreated WNV-Cp cells 69.6%
# Description: Human neuroblastoma SH-SY5Y cells were transfected with a WNV-Cp gene. To determine an apoptosis rate in cells expressing the capsid protein of WNV, the cells were stained with annexin V-PE and subjected to FACS analysis (BioRAD, Win BRYTE). As a result, the cells were fractionated into four fractions: A, B, C and D. The A fraction indicates a cell population that was not injected with the WNV-Cp gene and stained with annexin V-PE.
# Separately, SH-SY5Y cells were transfected with a WNV-Cp gene. After 6 hrs, the cells were treated with 200 nM of a PI3K inhibitor, wortmanin (Sigma), and 5 μM and 50 μM of an Akt inhibitor, calbiochem (CN Biosciences). After 24 hrs, the cells were stained with annexin V-PE that is capable of detecting a step of apoptosis and subjected to FACS analysis (BioRAD, WinBryte) for measuring an apoptosis rate. […] The transfected cells were analyzed on a FL3 channel (green fluorescence) and annexin V-PE binding was analyzed on a FL2 channel. An apoptosis rate in capsid-expressing cells was calculated according to Reaction 1, below. Cells transfected with a pEGFP-N1 plasmid were used as a negative control, and cells transfected with a C2-Cp plasmid and not treated with the inhibitor were used as a positive control. [Annexin V-PE-positive cells/(all cells expressing C2−Cp)]×100 [Reaction 1]
# WNV-Cp [2] = assay: Western blotting of WNV-Cp protein levels in transfected 293T cells; format: cell-based
# Method: 293T cells were plated onto 60-mm plates at a density of 3×10^5 cells, cultured, and transfected with pcDAN3-HA/WNV-Cp alone, and pcDAN3-HA/WNV-Cp and pCMV-tag2B-Jab1 together using an Effectene transfection reagent (Qiagen). In the case of the co-transfection, to equalize the levels of expressed DNA, 12 hrs after transfection, cells were divided into two plates by pipetting. 20 hrs after transfection, the cells were treated for 4 hrs with 20 μM/ml of the proteasome inhibitor LLnL (N-acetyl-L-luecinyl-norleucinal, Sigma). Then, the cells were washed with 1×PBS and collected. Samples of 50 μg protein were loaded onto a SDS-PAGE gel and analyzed by Western blotting using an anti-HA antibody (Santa Cruz) for the detection of WNV-Cp expression and an anti-Flag M2 antibody (Sigma) for the detection of Jab1 expression. Actin was used as a loading control.
# caspase-3 and caspase-9 = assay: Caspase activity assay (colorimetric) in transfected 293T cells; format: cell-based, human; conditions: 293T cells co-expressing WNV-Cp and Jab1 versus WNV-Cp alone, 24 hrs after transfection
# Method: 293T cells were plated onto 60-mm plates at a density of 3×10^5 cells, cultured, and transfected with pcDNA3-HA, pcDNA3-HA/Cp, pCMV-tag2B-Jab1, both pcDNA3-HA/Cp and pCMV-tag2B-Jab1, and pcDNA3-Bax, respectively. After 24 hrs, the cells were washed with 1×PBS twice, transferred to 1.5-ml tubes, and lysed with 20 μl of buffer C (25% glycerol, 0.42 M NaCl, 1.5 M MgCl2, 0.2 mM EDTA, 20 mM HEPES, 1 mM DTT, 0.5 mM PMSF, pH7.9). After being incubated for 10 min on ice, the lysed cells were centrifuged. The total protein concentration in each supernatant was measured, and samples of zero to 300 μg of proteins were placed into a 96-well plate. To the 96-well plate, 50 μl of 2× reaction buffer and 5 μl of 4 mM DNA-conjugated substrate, provided in a caspase colorimetric substrate set II plus kit (Biovision), were added. After a 1-hr incubation at 37° C., the activity of caspase-3 and caspase-9 was measured at 410 nm using a microtiter plate reader. The results are given in the A panel of FIG. 8. In cells expressing WNV-Cp, the activity of capase-3 and caspase-9 was similar to that in cells expressing Bax, a member of the pro-apoptotic Bcl-2 family. […] The expression of the proteins used in this caspase activity assay was detected by Western blotting, and the results are given in the B panel of FIG. 8.
# p53 = assay: Western blotting of endogenous p53 expression in transfected U2OS cells; format: cell-based, human; conditions: U2OS cells transfected with 1, 3 and 5 μg Flag construct, 48 hrs
# Method: U2OS cells were transfected with Flag/mdm2 (control) and Flag/Jab1 with various concentrations of 1, 3 and 5 μg using a Lipofectamin/plus reagent (Invitrogen). After 48 hrs, cell lysates were collected, and total protein concentrations were measured by a BSA (PIERCE) method. Samples of 100 μg/ml protein were separated on a 10% SDS-PAGE gel and transferred to a nitrocellulose membrane. The blot was blocked with 5% skim milk for 30 min, and treated with a rabbit anti-HA antibody (Santa Cruz) and a mouse anti-Flag antibody (Sigma) to examine expression levels of p53 according to increased expression of mdm2 and Jab1.
# WNV-Cp [3] = target: T1, WNV-Cp (West Nile virus, UniProt Q9Q6P4); assay: Immunoprecipitation of Jab1 with WNV-Cp in cotransfected 293T cells; format: binding; conditions: 293T cells cotransfected with Flag-Jab1 and HA-WNV-Cp, IP with anti-HA antibody
# T1 construct: capsid (Cp) protein of West Nile virus (WNV); expressed in transfected cells; host or cells: 293T
# T1 sequence (Q9Q6P4 2-105 limits assumed): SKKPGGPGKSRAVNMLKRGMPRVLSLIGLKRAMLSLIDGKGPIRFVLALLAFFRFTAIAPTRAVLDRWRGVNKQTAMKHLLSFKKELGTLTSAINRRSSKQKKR
# Method: Separately, immunoprecipitation (IP) was performed to confirm the interaction between WNV-Cp and Jab1. 293T cells were cotransfected with Flag-Jab1 and HA-WNV-Cp plasmids, and the whole cell lysates were immunoprecipitated with an anti-HA mouse antibody. As a control, IP was carried out with an anti-Myc antibody. Immunoprecipited proteins were run on a 12% SDS-PAGE gel, transferred to a nitrocellulose membrane, and detected with an anti-Flag mouse antibody to visualize immunoprecipitated Jab1 along with WNV-Cp (FIG. 7).
# WNV-Cp [4] = assay: Immunofluorescence (confocal) localisation of WNV-Cp in cotransfected 293T, U2OS and HeLa cells; format: cell-based, West Nile virus; conditions: U2OS and HeLa cells cotransfected with WNV-Cp and Jab1, 24 hrs
# Description: To evaluate the effect of Jab1, identified to interact with WNV-Cp, on the intracellular location of WNV-cp, 293T, U2OS and HeLa cells were cotransfected with the WNV-Cp protein and Jab1. 293T, U2OS and HeLa cells were cotransfected with HA-tagged pcDNA-HA/WNV-Cp and Flag-tagged pCMV Tag2B-Jab1. After 24 hrs, the cells were stained using an anti-HA antibody (green) and an anti-Flag antibody (red) and observed under a confocal microscope.
# Sequence of p53 (P04637 whole entry): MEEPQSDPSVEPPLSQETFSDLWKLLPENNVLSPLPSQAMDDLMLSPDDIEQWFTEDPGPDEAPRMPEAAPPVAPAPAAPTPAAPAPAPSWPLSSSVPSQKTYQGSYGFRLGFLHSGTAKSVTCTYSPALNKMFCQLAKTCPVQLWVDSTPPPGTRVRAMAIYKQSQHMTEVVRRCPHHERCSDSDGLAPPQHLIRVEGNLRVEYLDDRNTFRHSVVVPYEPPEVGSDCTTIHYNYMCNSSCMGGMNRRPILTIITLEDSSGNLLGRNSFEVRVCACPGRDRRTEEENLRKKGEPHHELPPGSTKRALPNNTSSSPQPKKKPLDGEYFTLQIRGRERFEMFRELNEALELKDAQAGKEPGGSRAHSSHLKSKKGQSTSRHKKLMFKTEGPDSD
molecule,measurement,setting,value
COC[C@H]1OC(=O)c2coc3c2[C@@]1(C)C1=C(C3=O)[C@@H]2CCC(=O)[C@@]2(C)C[C@H]1OC(C)=O [wortmanin],apoptosis rate,[1],22.8%
"CCCC[C@@H](C=O)NC(=O)[C@H](CC(C)C)NC(=O)[C@H](CC(C)C)NC(C)=O [LLnL, N-acetyl-L-luecinyl-norleucinal, reference compound] (Ac-Leu-Leu-[Nle]-aldehyde)",protein levels of WNV-Cp,"WNV-Cp [2]; 293T cells cotransfected with WNV-Cp and Jab1, treated for 4 hrs with 20 μM/ml LLnL",increased
"Jab1: Jun-activation binding protein 1, expressed in cells from plasmid pCMV-tag2B-Jab1 (Flag-tagged); amino acid sequence SEQ ID No. 2",caspase activity (caspase-3 and caspase-9),caspase-3 and caspase-9,remarkably reduced
same,protein levels of WNV-Cp,"WNV-Cp [2]; 293T cells, co-expression with Jab1 compared to single expression of WNV-Cp",large decrease
same,expression of p53,p53,remarkably decreased
same,interaction with WNV-Cp (co-immunoprecipitation),WNV-Cp [3],co-immunoprecipitated with WNV-Cp
same,intracellular location of WNV-Cp,WNV-Cp [4],appeared in the cytoplasm
